Assay results as given in patent publication US20230312605A1, “PYRROLO[2,1-F][1,2,4]TRIAZINES AND PREPARATION AND USES THEREOF” (BioSplice Therapeutics, Inc., priority 2021, published 2023).

target: recombinant DYRK1A kinase (Homo sapiens (Human), UniProt Q13627); assay: DYRK1A kinase assay (Ser/Thr 18 peptide Z-lyte FRET assay); format: biochemical; conditions: recombinant DYRK1A 0.25 µg/mL, ATP 15 µM, Ser/Thr peptide 18 4 µM, one hour at room temperature; table head prints EC50, method says IC50
Method in brief: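 Recombinant human DYRK1A (0.25 µg/mL) with 15 µM ATP and 4 µM Ser/Thr 18 peptide was incubated 1 h at room temperature with compound (11-point, 10 µM top), in duplicate. Z-lyte FRET read-out (coumarin/fluorescein emission ratio) was converted to percent phosphorylation; IC50 from non-linear regression.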

| Structure (SMILES) | EC50 [nM] |
| --- | --- |
| Cc1nc2ncc(-c3ccn4nc(NC5CCN(CC(F)F)CC5)ncc34)cc2n1CC(F)F [Compound 1882, 5-(1-(2,2-Difluoroethyl)-2-methyl-1H-imidazo[4,5-b]pyridin-6-yl)-N-(1-(2,2-difluoroethyl)piperidin-4-yl)pyrrolo[2,1-f][1,2,4]triazin-2-amine] | 4 |
| Cc1nc2ncc(-c3ccn4nc(NC5CCN(CCC(F)(F)F)CC5)ncc34)cc2n1CC(F)F [Compound 1883, 5-(1-(2,2-Difluoroethyl)-2-methyl-1H-imidazo[4,5-b]pyridin-6-yl)-N-(1-(3,3,3-trifluoropropyl)piperidin-4-yl)pyrrolo[2,1-f][1,2,4]triazin-2-amine] | 9 |
| Cc1nc2ncc(-c3ccn4nc(N[C@@H]5CCN(C)C[C@@H]5F)ncc34)cc2n1CC(F)F [Compound 1884, 5-(1-(2,2-Difluoroethyl)-2-methyl-1H-imidazo[4,5-b]pyridin-6-yl)-N-((3S,4R)-3-fluoro-1-methylpiperidin-4-yl)pyrrolo[2,1-f][1,2,4]triazin-2-amine] | 7 |
| Cc1nc2ncc(-c3ccn4nc(N[C@H]5CCN(C)C[C@@H]5F)ncc34)cc2n1CC(F)F [Compound 1886, 5-(1-(2,2-Difluoroethyl)-2-methyl-1H-imidazo[4,5-b]pyridin-6-yl)-N-((3S,4S)-3-fluoro-1-methylpiperidin-4-yl)pyrrolo[2,1-f][1,2,4]triazin-2-amine] | 3 |
| Cc1nc2ncc(-c3ccn4nc(N[C@H]5CCN(C)C[C@H]5F)ncc34)cc2n1CC(F)F [Compound 1887, 5-(1-(2,2-Difluoroethyl)-2-methyl-1H-imidazo[4,5-b]pyridin-6-yl)-N-((3R,4S)-3-fluoro-1-methylpiperidin-4-yl)pyrrolo[2,1-f][1,2,4]triazin-2-amine] | 31 |
| Cc1nc2ncc(-c3ccn4nc(NC5CCN(C6COC6)CC5)ncc34)cc2n1CC(F)F [Compound 1889, 5-(1-(2,2-Difluoroethyl)-2-methyl-1H-imidazo[4,5-b]pyridin-6-yl)-N-(1-(oxetan-3-yl)piperidin-4-yl)pyrrolo[2,1-f][1,2,4]triazin-2-amine] | 7 |
| Cc1nc2ccc(-c3ccn4nc(N[C@H]5C[C@@H](N6CCOCC6)C5)ncc34)nc2n1CC(F)F [Compound 1892, 5-(3-(2,2-Difluoroethyl)-2-methyl-3H-imidazo[4,5-b]pyridin-5-yl)-N-(cis-3-morpholinocyclobutyl)pyrrolo[2,1-f][1,2,4]triazin-2-amine] | 2 |
| Cc1nc2ccc(-c3ccn4nc(N[C@H]5C[C@H](N6CCOCC6)C5)ncc34)nc2n1CC(F)F [Compound 1893, 5-(3-(2,2-Difluoroethyl)-2-methyl-3H-imidazo[4,5-b]pyridin-5-yl)-N-(trans-3-morpholinocyclobutyl)pyrrolo[2,1-f][1,2,4]triazin-2-amine] | 5 |
| CC(=O)N1CC2(CCC(Nc3ncc4c(-c5ccc6nc(C)n(CC(F)F)c6n5)ccn4n3)CC2)C1 [Compound 1899, 1-(7-((5-(3-(2,2-difluoroethyl)-2-methyl-3H-imidazo[4,5-b]pyridin-5-yl)pyrrolo[2,1-f][1,2,4]triazin-2-yl)amino)-2-azaspiro[3.5]nonan-2-yl)ethan-1-one] | 1 |
| Cc1nc2ccc(-c3ccn4nc(N[C@@H]5CN(C)C[C@@H]5F)ncc34)nc2n1CC(F)F [Compound 1900] | 5 |
| Cc1nc2ccc(-c3ccn4nc(N[C@H]5CN(C)C[C@H]5F)ncc34)nc2n1CC(F)F [Compound 1903, 5-(3-(2,2-Difluoroethyl)-2-methyl-3H-imidazo[4,5-b]pyridin-5-yl)-N-((3S,4R)-4-fluoro-1-methylpyrrolidin-3-yl)pyrrolo[2,1-f][1,2,4]triazin-2-amine] | 12 |
| Cc1nc2ccc(-c3ccn4nc(N[C@@H]5COC[C@H]5O)ncc34)nc2n1CC(F)F [Compound 1906, (3S,4R)-4-((5-(3-(2,2-Difluoroethyl)-2-methyl-3H-imidazo [4,5-b]pyridin-5-yl)pyrrolo[2,1-f][1,2,4]triazin-2-yl)amino)tetrahydrofuran-3-ol] | 4 |
| Cc1nc2ccc(-c3ccn4nc(N[C@@H]5CCN(CC(C)C)C[C@@H]5F)ncc34)nc2n1CC(F)F [Compound 1908, 5-(3-(2,2-Difluoroethyl)-2-methyl-3H-imidazo[4,5-b]pyridin-5-yl)-N-((3S,4R)-3-fluoro-1-isobutylpiperidin-4-yl)pyrrolo[2,1-f] [1,2,4]triazin-2-amine] | 7 |
| Cc1nc2ccc(-c3ccn4nc(N[C@H]5CCN(CC(C)C)C[C@H]5F)ncc34)nc2n1CC(F)F [Compound 1909, 5-(3-(2,2-difluoroethyl)-2-methyl-3H-imidazo[4,5-b]pyridin-5-yl)-N-((3R,4S)-3-fluoro-1-isobutylpiperidin-4-yl)pyrrolo[2,1-f][1,2,4]triazin-2-amine] | 5 |
| Cc1nc2ccc(-c3ccn4nc(N[C@@H]5[C@@H]6COC[C@@H]65)ncc34)nc2n1CC(F)F [Compound 1914, N-((lR,5S,6s)-3-Oxabicyclo[3.1.0]hexan-6-yl)-5-(3-(2,2-difluoroethyl)-2-methyl-3H-imidazo[4,5-b]pyridin-5-yl)pyrrolo[2,1-f][1,2,4]triazin-2-amine] | 5 |
| Cc1nc2ncc(-c3ccn4nc(NC5CCC(F)(F)CC5)ncc34)cc2n1Cc1nnc([C@@H](C)F)o1 [Compound 1915, (R)-N-(4,4-Difluorocyclohexyl)-5-(1-((5-(1-fluoroethyl)-1,3,4-oxadiazol-2-yl)methyl)-2-methyl-1H-imidazo[4,5-b]pyridin-6-yl)pyrrolo[2,1-f][1,2,4]triazin-2-amine] | 9 |

More lines, in order of falling EC50, values ahead:

| EC50 [nM] | Structure (SMILES) |
| --- | --- |
| 14 | C[C@]1(O)CC[C@H](Nc2ncc3c(-c4ccc5nnn(CC(F)F)c5c4)ccn3n2)CC1 [Compound 1890, trans-4-((5-(1-(2,2-Difluoroethyl)-1H-benzo[d][1,2,3]triazol-6-yl)pyrrolo [2,1-f][1,2,4]triazin-2-yl)amino)-1-methylcyclohexan-1-o1] |
| 11 | C[C@]1(O)CC[C@H](Nc2ncc3c(-c4ccn5nccc5c4)ccn3n2)CC1 [Compound 1891, trans-1-Methyl-4-((5-(pyrazolo[1,5-a]pyridin-5-yl)pyrrolo[2,1-f][1,2,4]triazin-2-yl)amino)cyclohexan-1-ol] |
| 11 | Cc1nc2ccc(-c3ccn4nc(N[C@H]5CC[C@@H](CN6CC(F)C6)CC5)ncc34)nc2n1CC(F)F [Compound 1894, 5-(3-(2,2-Difluoroethyl)-2-methyl-3H-imidazo[4,5-b]pyridin-5-yl)-N-(cis-4-((3-fluoroazetidin-1-yl)methyl)cyclohexyl)pyrrolo [2,1-f] [1,2,4]triazin-2-amine] |
| 7 | Cc1nc2ccc(-c3ccn4nc(N[C@@H]5CCOC[C@H]5F)ncc34)nc2n1CC(F)F [Compound 1912, 5-(3-(2,2-Difluoroethyl)-2-methyl-3H-imidazo[4,5-b]pyridin-5-yl)-N-((3S,4R)-3-fluorotetrahydro-2H-pyran-4-yl)pyrrolo[2,1-f] [1,2,4]triazin-2-amine] |
| 6 | Cc1nc2ncc(-c3ccn4nc(N[C@@H]5CCN(C)C[C@H]5F)ncc34)cc2n1CC(F)F [Compound 1885, 5-(1-(2,2-Difluoroethyl)-2-methyl-1H-imidazo[4,5-b]pyridin-6-yl)-N-((3R,4R)-3-fluoro-1-methylpiperidin-4-yl)pyrrolo[2,1-f][1,2,4]triazin-2-amine] |
| 6 | Cc1nc2ccc(-c3ccn4nc(N[C@@H]5CN(C)C[C@H]5F)ncc34)nc2n1CC(F)F [Compound 1902] |
| 4 | Cc1nc2ccc(-c3ccn4nc(N[C@H]5CN(C)C[C@@H]5F)ncc34)nc2n1CC(F)F [Compound 1901, 5-(3-(2,2-Difluoroethyl)-2-methyl-3H-imidazo[4,5-b]pyridin-5-yl)-N-((3S,4S)-4-fluoro-1-methylpyrrolidin-3-yl)pyrrolo [2,1-f] [1,2,4]triazin-2-amine] |
| 4 | Cc1nc2ccc(-c3ccn4nc(N[C@H]5CCN(C)C(=O)C5)ncc34)nc2n1CC(F)F [Compound 1911, (S)-4-((5-(3-(2,2-Difluoroethyl)-2-methyl-3H-imidazo [4,5-b]pyridin-5-yl)pyrrolo[2,1-f] [1,2,4]triazin-2-yl)amino)-1-methylpiperidin-2-one] |
| 3 | Cc1nc2ncc(-c3ccn4nc(NC5CCN(C(=O)C(C)C)CC5)ncc34)cc2n1CC(F)F [Compound 1888, 1-(4-((5-(1-(2,2-Difluoroethyl)-2-methyl-1H-imidazo[4,5-b]pyridin-6-yl)pyrrolo[2,1-f][1,2,4]triazin-2-yl)amino)piperidin-1-yl)-2-methylpropan-1-one] |
| 3 | Cc1nc2ccc(-c3ccn4nc(N[C@H]5CC[C@H](C(=O)N(C)C)CC5)ncc34)nc2n1CC(F)F [Compound 1895, trans-4-((5-(3-(2,2-Difluoroethyl)-2-methyl-3H-imidazo[4,5-b]pyridin-5-yl)pyrrolo[2,1-f] [1,2,4]triazin-2-yl)amino)-N,N-dimethylcyclohexane-1-carboxamide] |
| 3 | Cc1nc2ccc(-c3ccn4nc(N[C@H]5CC[C@@H](C(=O)N6CCC6)CC5)ncc34)nc2n1CC(F)F [Compound 1896, azetidin-1-yl(cis-4-((5-(3-(2,2-difluoroethyl)-2-methyl-3H-imidazo[4,5-b]pyridin-5-yl)pyrrolo[2,1-f][1,2,4]triazin-2-yl)amino)cyclohexyl)methanone] |
| 3 | CC(=O)N[C@H]1CC[C@@H](Nc2ncc3c(-c4ccc5nc(C)n(CC(F)F)c5n4)ccn3n2)CC1 [Compound 1898, N-(cis-4-((5-(3-(2,2-Difluoroethyl)-2-methyl-3H-imidazo [4,5-b]pyridin-5-yl)pyrrolo[2,1-f] [1,2,4]triazin-2-yl)amino)cyclohexyl)acetamide] |
| 2 | Cc1nc2ncc(-c3ccn4nc(NC5CCN(CCF)CC5)ncc34)cc2n1CC(F)F [Compound 1881, 5-(1-(2,2-Difluoroethyl)-2-methyl-1H-imidazo[4,5-b]pyridin-6-yl)-N-(1-(2-fluoroethyl)piperidin-4-yl)pyrrolo[2,1-f][1,2,4]triazin-2-amine] |
